# Results as given in BindingDB's records for doi:10.1021/jm000145g (University of Oxford, 2001).
# Where a name gives a salt, the structure may show the parent alone.
# Biological target: Prostate-specific antigen (Homo sapiens) (UniProt P07288)
# Assay: Inhibition of Prostate specific antigen PSA (Serine Protease)
# Chain of Prostate-specific antigen (Homo sapiens) (P07288 whole entry, looked up): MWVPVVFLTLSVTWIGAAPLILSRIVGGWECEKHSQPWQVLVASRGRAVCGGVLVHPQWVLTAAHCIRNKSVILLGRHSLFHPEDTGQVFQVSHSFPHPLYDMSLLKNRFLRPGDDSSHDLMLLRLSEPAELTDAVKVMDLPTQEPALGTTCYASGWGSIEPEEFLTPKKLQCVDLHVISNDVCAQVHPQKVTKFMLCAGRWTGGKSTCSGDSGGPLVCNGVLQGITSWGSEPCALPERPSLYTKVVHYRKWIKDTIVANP
row,IC50,SMILES
1,9.14 µM,O=C(OCc1ccccc1)[C@@H]1[C@H](Cc2ccc(O)cc2)C(=O)N1C(=O)c1ccccc1 [1-Benzoyl-3-(4-hydroxy-benzyl)-4-oxo-azetidine-2-carboxylic acid benzyl ester]
2,24.3 µM,O=C(O)c1ccc(COC(=O)[C@@H]2[C@H](Cc3ccccc3)C(=O)N2C(=O)c2ccccc2)cc1 [1-Benzoyl-3-benzyl-4-oxo-azetidine-2-carboxylic acid 4-carboxy-benzyl ester]
3,1.34 µM,NCc1ccc(COC(=O)[C@@H]2[C@H](Cc3ccccc3)C(=O)N2C(=O)Cc2cccc(C(=O)OCc3ccccc3)c2)cc1 [3-Benzyl-1-[2-(3-benzyloxycarbonyl-phenyl)-acetyl]-4-oxo-azetidine-2-carboxylic acid 4-aminomethyl-benzyl ester; TFA]
4,> 30 µM,O=C(O)c1ccc(COC(=O)[C@@H]2[C@H](Cc3ccccc3)C(=O)N2C(=O)Cc2cccc(C(=O)O)c2)cc1 [3-Benzyl-1-[2-(3-carboxy-phenyl)-acetyl]-4-oxo-azetidine-2-carboxylic acid 4-carboxy-benzyl ester]
5,> 30 µM,Cc1ccc(S(=O)(=O)N2C(=O)[C@@H](Cc3ccccc3)[C@H]2C(=O)OCc2ccccc2)cc1 [3-Benzyl-4-oxo-1-(toluene-4-sulfonyl)-azetidine-2-carboxylic acid benzyl ester]
6,> 100 µM,O=C(OCc1ccccc1)c1cccc(CC(=O)N2C(=O)[C@@H](Cc3ccccc3)[C@H]2COC(=O)c2ccccc2)c1 [3-[2-(2-Benzoyloxymethyl-3-benzyl-4-oxo-azetidin-1-yl)-2-oxo-ethyl]-benzoic acid benzyl ester]
7,3.08 µM,O=C(OC[C@@H]1[C@H](Cc2ccccc2)C(=O)N1S(=O)(=O)c1ccccc1)c1ccccc1 [Benzoic acid 1-benzenesulfonyl-3-benzyl-4-oxo-azetidin-2-ylmethyl ester]
8,1.59 µM,O=C(OC[C@@H]1[C@H](Cc2ccccc2)C(=O)N1C(=O)c1ccccc1)c1ccccc1 [Benzoic acid 1-benzoyl-3-benzyl-4-oxo-azetidin-2-ylmethyl ester]
9,11.5 µM,O=C(OC[C@@H]1[C@H](Cc2ccccc2)C(=O)N1S(=O)(=O)c1ccc([N+](=O)[O-])cc1)c1ccccc1 [Benzoic acid 3-benzyl-1-(4-nitro-benzenesulfonyl)-4-oxo-azetidin-2-ylmethyl ester]
10,2.19 µM,CCS(=O)(=O)N1C(=O)[C@@H](Cc2ccccc2)[C@H]1COC(=O)c1ccccc1 [Benzoic acid 3-benzyl-1-ethanesulfonyl-4-oxo-azetidin-2-ylmethyl ester]
11,4.79 µM,Cc1ccc(S(=O)(=O)N2C(=O)[C@@H](Cc3ccccc3)[C@H]2COC(=O)c2ccccc2)cc1 [Benzoic acid 3-benzyl-4-oxo-1-(toluene-4-sulfonyl)-azetidin-2-ylmethyl ester]
12,> 100 µM,O=C(O)c1ccc(C(=O)OC[C@@H]2[C@H](Cc3ccccc3)C(=O)N2C(=O)c2ccccc2)cc1 [Terephthalic acid mono-(1-benzoyl-3-benzyl-4-oxo-azetidin-2-ylmethyl) ester]
